Assay results: US8604053B2, “TRPV1 antagonists” (AbbVie Inc., priority 2008, dated 2013)

How the values were obtained:
[1] = target: T1, human TRPV1 receptor (hTRPV1) (Homo sapiens, UniProt Q8NER1); test: Capsaicin activation assay (Ca2+ influx, FLIPR); format: cell-based; details: hTRPV1 in 1321N1 cells, 0.05 μM capsaicin
T1 construct: expressed in transfected cells
Experimental: Dulbecco's modified Eagle medium (D-MEM) (with 4.5 mg/mL glucose) and fetal bovine serum were obtained from Hyclone Laboratories, Inc. (Logan, Utah). Dulbecco's phosphate-buffered saline (D-PBS) (with 1 mg/mL glucose and 3.6 mg/l Na pyruvate, without phenol red), L-glutamine, hygromycin B, and Lipofectamine® were obtained from Life Technologies (Grand Island, N.Y.). G418 sulfate was obtained from Calbiochem-Novabiochem Corp. (San Diego, Calif.). Capsaicin (8-methyl-N-vanillyl-6-nonenamide) was obtained from Sigma-Aldrich, Co. (St. Louis, Mo.). Fluo-4 AM (N-[4-[6-[(acetyloxy)methoxy]-2,7-difluoro-3-oxo-3H-xanthen-9-yl]-2-[2-[2-[bis[2-[(acetyloxy)methoxy]-2-oxyethyl]amino]-5-methyl-phenoxy[ethoxy]phenyl]-N-[2-[(acetyloxy)methoxy]-2-oxyethyl]-glycine, (acetyloxy)methyl ester) was purchased from Molecular Probes (Eugene, Oreg.).
The cDNAs for the human TRPV1 receptor (hTRPV1) were isolated by reverse transcriptase-polymerase chain reaction (RT-PCR) from human small intestine poly A+ RNA supplied by Clontech (Palo Alto, Calif.) using primers designed surrounding the initiation and termination codons identical to the published sequences (Hayes et al. Pain 2000, 88, 205-215). The resulting cDNA PCR products were subcloned into pClneo mammalian expression vector (Promega) and fully sequenced using fluorescent dye-terminator reagents (Prism, Perkin-Elmer Applied Biosystems Division) and a Perkin-Elmer Applied Biosystems Model 373 DNA sequencer or Model 310 genetic analyzer. Expression plasmids encoding the hTRPV1 cDNA were transfected individually into 1321N1 human astrocytoma cells using Lipofectamine®. Forty-eight hours after transfection, the neomycin-resistant cells were selected with growth medium containing 800 μg/mL Geneticin (Gibco BRL). Surviving individual colonies were isolated and screened for TRPV1 receptor activity. Cells expressing recombinant homomeric TRPV1 receptors were maintained at 37° C. in D-MEM containing 4 mM L-glutamine, 300 μg/mL G418 (Cal-biochem) and 10% fetal bovine serum under a humidified 5% CO2 atmosphere.
The functional activity of compounds at the TRPV1 receptor was determined with a Ca^2+ influx assay and measurement of intracellular Ca^2+ levels ([Ca^2+]i). All compounds were tested over an 11-point half-log concentration range. Compound solutions were prepared in D-PBS (4× final concentration), and diluted serially across 96-well v-bottom tissue culture plates using a Biomek 2000 robotic automation workstation (Beckman-Coulter, Inc., Fullerton, Calif.). A 0.2 μM solution of the TRPV1 agonist capsaicin was also prepared in D-PBS. The fluorescent Ca^2+ chelating dye Fluo-4 AM was used as an indicator of the relative levels of [Ca^2+]i in a 96-well format using a Fluorescence Imaging Plate Reader (FLIPR)(Molecular Devices, Sunnyvale, Calif.). Cells were grown to confluency in 96-well black-walled tissue culture plates. Then, prior to the assay, the cells were loaded with 100 μL per well of Fluo-4 AM (2 μM, in D-PBS) for 1-2 hours at 23° C. Washing of the cells was performed to remove extracellular Fluo-4 AM (2×1 mL D-PBS per well), and afterward, the cells were placed in the reading chamber of the FLIPR instrument. 50 μL of the compound solutions were added to the cells at the 10 second time mark of the experimental run. Then, after a 3-minute time delay, 50 μL of the capsaicin solution was added at the, 190 second time mark (0.05 μM final concentration)(final volume=200 μL) to challenge the TRPV1 receptor. Time length of the experimental run was 240 seconds. Fluorescence readings were made at 1 to 5 second intervals over the course of the experimental run. The peak increase in relative fluorescence units (minus baseline) was calculated from the 190 second time mark to the end of the experimental run, and expressed as a percentage of the 0.05 μM capsaicin (control) response. […]

[2] = Rat telemetry protocol, core body temperature; format: in vivo; details: core body temperature of rats one hour post dosing, 100 μmol/kg p.o., relative to vehicle
Experimental: Male, Sprague Dawley rats, 225-250 grams were anesthetized with Sevoflurane (Abbott Laboratories). Rats were placed on a heating pad and covered with a sterile surgical drape. A ventral midline abdominal incision was made and sterile cotton tip applicators were used to gently move internal tissue and expose the abdominal aorta for implantation of the telemetry catheter (Data Sciences International; TL11M2-050-PXT). Blood flow was temporarily stopped to the lower extremities (5-7 min) with Diffenbach clamps to allow the insertion of the telemetry catheter into the abdominal aorta. Once inserted, a sterile cellulose patch was placed over the catheter/aorta and secured using a small amount of tissue adhesive (Vetbond, 3M). Once catheter placement was complete, the clamps were removed and blood flow was restored to the lower extremities. Thetransmitter was placed in the intraperitoneal cavity. The transmitter suture rib was sewn into the abdominal sutures to secure it in place. The skin was closed using sterile wound clips and the animal removed from Sevoflurane. Buprenex ([…] s.c.; Phoenix) was administered for post-operative analgesia. Animals were maintained on a heating pad until ambulatory, and then individually housed with food and water ad lib. Surgical staples were removed after 7-10 days post-implantation. Rats were allowed a 2-week post-surgical recovery period before treatment with test compound. Oral dosing (p.o.) was at time zero, with rats receiving a single dose of vehicle (10% EtOH, 20% Tween-80, 70% PEG-400) or a 100 μmol/kg dose of compound dissolved in vehicle. Temperature measurements were recorded every 15 minutes for the duration of the study (24 hours).
Representative compounds described herein have the novel property of having limited transient temperature effect on core body temperature of a mammal (e.g. rats). For example, compounds tested alter core body temperature of rats by less than about +0.5° C. at about 1 hour after administration of a single dose (100 μmol/kg) of the test compounds orally, for example, in the range from about −2.5° C. to less than about +0.5° C., from about −0.5° C. to less than about +0.5° C.; or from about −0.3° C. to about +0.3° C.
The term “core body temperature” as used herein, means the temperature measured in the intraperitoneal cavity.

T1 sequence (Q8NER1 whole entry): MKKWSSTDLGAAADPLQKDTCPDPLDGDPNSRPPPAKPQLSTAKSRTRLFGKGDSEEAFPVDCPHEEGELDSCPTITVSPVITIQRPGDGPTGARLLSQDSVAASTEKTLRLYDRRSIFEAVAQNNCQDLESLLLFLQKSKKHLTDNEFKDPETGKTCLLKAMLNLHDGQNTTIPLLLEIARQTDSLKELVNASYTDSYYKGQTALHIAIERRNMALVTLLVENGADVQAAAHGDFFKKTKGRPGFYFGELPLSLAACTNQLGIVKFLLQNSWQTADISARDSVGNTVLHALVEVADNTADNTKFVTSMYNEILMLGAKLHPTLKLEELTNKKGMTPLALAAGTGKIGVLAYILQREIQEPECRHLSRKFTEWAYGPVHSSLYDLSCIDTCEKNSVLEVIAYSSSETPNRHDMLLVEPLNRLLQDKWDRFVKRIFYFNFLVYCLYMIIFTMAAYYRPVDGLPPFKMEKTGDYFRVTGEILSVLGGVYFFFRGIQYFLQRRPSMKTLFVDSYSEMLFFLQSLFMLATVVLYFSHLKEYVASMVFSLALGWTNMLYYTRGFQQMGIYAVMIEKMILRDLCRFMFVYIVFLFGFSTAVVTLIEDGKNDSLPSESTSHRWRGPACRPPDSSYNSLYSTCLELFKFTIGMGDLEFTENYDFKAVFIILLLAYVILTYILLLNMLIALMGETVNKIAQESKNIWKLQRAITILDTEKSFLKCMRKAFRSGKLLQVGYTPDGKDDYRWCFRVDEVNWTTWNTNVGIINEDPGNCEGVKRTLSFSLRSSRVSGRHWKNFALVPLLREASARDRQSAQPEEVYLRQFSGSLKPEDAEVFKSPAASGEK

IC50 [1] [nM]	Compound	Δ Temp (° C.) [2] [°C]
4	CCC1(CC)C[C@@H](NC(=O)Nc2cccc3cnc(C)cc23)c2ccc(Cl)cc2O1 [Example 69, N-[(4R)-7-chloro-2,2-diethyl-3,4-dihydro-2H-chromen-4-yl]-N′-(3-methylisoquinolin-5-yl)urea]	0.1
24	N-[(4R)-7-fluoro-2,2,8-trimethyl-3,4-dihydro-2H-chromen-4-yl]-N-(3-methylisoquinolin-5-yl)urea [Example 111]	−1.3
14	Cc1cc2c(NC(=O)N[C@@H]3CC(CF)(CF)Oc4cc(Br)ccc43)cccc2cn1 [Example 102, N-[(4R)-7-bromo-2,2-bis(fluoromethyl)-3,4-dihydro-2H-chromen-4-yl]-N′-(3-methylisoquinolin-5-yl)urea]	−0.7
10	Cc1cc2c(NC(=O)N[C@@H]3CC(CF)(CF)Oc4c(OC(F)(F)F)cccc43)cccc2cn1 [Example 87, N-[(4R)-2,2-bis(fluoromethyl)-8-(trifluoromethoxy)-3,4-dihydro-2H-chromen-4-yl]-N′-(3-methylisoquinolin-5-yl)urea]	−2.0
32	CC1(C)C[C@@H](NC(=O)Nc2cccc3cnccc23)c2ccccc2O1 [Example 27, N-[(4R)-2,2-dimethyl-3,4-dihydro-2H-chromen-4-yl]-N′-isoquinolin-5-ylurea]	−1.0
9	Cc1cc2c(NC(=O)N[C@@H]3CC(C)(C)Oc4c(OC(F)(F)F)cccc43)cccc2cn1 [Example 94, N-[(4R)-2,2-dimethyl-8-(trifluoromethoxy)-3,4-dihydro-2H-chromen-4-yl]-N′-(3-methylisoquinolin-5-yl)urea]	−2.0
300	Cc1cc2c(NC(=O)N[C@@H]3C[C@@](C)(CF)Oc4c(F)cccc43)cccc2cn1 [Example 128, N-[(2S,4R)-8-fluoro-2-(fluoromethyl)-2-methyl-3,4-dihydro-2H-chromen-4-yl]-N′-(3-methylisoquinolin-5-yl)urea]	−0.1
32	N-[(4R)-6,8-difluoro-2,2-dimethyl-3,4-dihydro-2H-chromen-4-yl]-N′-isoquinolin-5-ylurea [Example 17]	−1.5
200	Cc1cc2c(NC(=O)N[C@@H]3C[C@](C)(CF)Oc4c(F)cccc43)cccc2cn1 [Example 126, N-[(2R,4R)-8-fluoro-2-(fluoromethyl)-2-methyl-3,4-dihydro-2H-chromen-4-yl]-N′-(3-methylisoquinolin-5-yl)urea]	0.0
5	CC1(C)C[C@@H](NC(=O)Nc2cccc3cnccc23)c2ccc(C(F)(F)F)cc2O1 [Example 34, N-[(4R)-2,2-dimethyl-7-(trifluoromethyl)-3,4-dihydro-2H-chromen-4-yl]-N′-isoquinolin-5-ylurea]	−1.6
5	CCC1(CC)C[C@@H](NC(=O)Nc2cccc3cnc(Cl)cc23)c2cccc(F)c2O1 [Example 81, N-(3-chloroisoquinolin-5-yl)-N′-[(4R)-2,2-diethyl-8-fluoro-3,4-dihydro-2H-chromen-4-yl]urea]	−0.5
26	Cc1cc2c(NC(=O)N[C@@H]3CC(CF)(CF)Oc4c(Cl)cccc43)cccc2cn1 [Example 91, N-[(4R)-8-chloro-2,2-bis(fluoromethyl)-3,4-dihydro-2H-chromen-4-yl]-N′-(3-methylisoquinolin-5-yl)urea]	−0.1
6	CC1(C)C[C@@H](NC(=O)Nc2cccc3cnccc23)c2ccc(F)cc2O1 [Example 23, N-[(4R)-7-fluoro-2,2-dimethyl-3,4-dihydro-2H-chromen-4-yl]-N′-isoquinolin-5-ylurea]	−0.7
